According to patent US11933794B2, “Method for determining factor Xa inhibitor dosage” (Good Biomarker Sciences B.V., priority 2017, dated 2024):

Experiments:
[1] = test system: fibrin clot formation in blood plasma; test: Clot growth rate assay (Thrombodynamics) in plasma samples with defined Factor VIII levels; format: biochemical, human; details: for inhibition of clot growth rate: FIG. 1
Excerpt: (§1) The clot growth rate assay monitors over time fibrin clot development in a nonstirred thin layer of platelet-free plasma activated by immobilized tissue factor. For this, the Thrombodynamics Basic Kit can be used as an in vitro diagnostic kit used to perform measurements of spatiotemporal dynamics of fibrin clot formation in blood plasma samples. The kit consists of measurement cuvettes, activating inserts and reagents for samples treatment. The kit is obtainable from HemaCore intended for professional use in the laboratory on the Thrombodynamics Analyzer T-2. See, for further details, Soshitova et al. (Blood Coagul. Fibrinolysis, 2012 September; 23(6):498-507).
Five plasma samples were prepared containing 50%, 75%, 100%, 150%, or 200% Factor VIII, respectively. The samples were prepared using FVIII-deficient plasma, normal plasma from healthy subjects, and FVIII concentrate and Factor VIII levels were measured and confirmed by the one-stage clotting assay. Each of these five plasma samples was subdivided into five subsamples to which apixaban was added to a total concentration of 0 μM, 0.1 μM, 0.2 μM, 0.35 μM, or 0.5 μM in plasma, respectively. The 25 subsamples were subjected to a clot growth assay as described above, and the clot growth rate was measured at 2500 seconds after start of growth.
For each different Factor VIII concentration (i.e., 50%, 75%, 100%, 150% or 200%), five bars are shown representing subsamples to which apixaban was added to a different total concentration, i.e., 0 μM, 0.1 μM, 0.2 μM, 0.35 μM, or […], respectively.

[2] = test system: clot growth in hemophilia plasma (deficient in Factor IX and Factor VIII); test: Clot growth experiments comparing normal and hemophilia plasma; format: biochemical, human; details: hemophilia plasmas; in contrast to what was found in normal plasma
Excerpt: For clot growth, this now appears the key mechanism. In contrast, in text books, activation of Factor VIII is indicated to be a thrombin action.
as §1

[3] = test system: coagulation status; test: Coagulation status of patients by routine coagulation test (activated partial thromboplastin time, APTT); format: in vivo, human
Experimental: Four subjects in need of […] are selected, including three patients with thrombosis, and one patient with coronary artery disease.
Coagulation status of patients 1-4 is determined by a routine coagulation test (activated partial thromboplastin time, APTT).

SMILES	inhibition of clot growth rate ([1]; Factor VIII level below 100%, lowest apixaban concentration (0.1 μM in plasma))	inhibition of clot growth rate ([1]; Factor VIII levels above 100%, 0.1 μM apixaban)	inhibition of clot growth rate ([1]; Factor VIII levels above 100%, 0.35 μM apixaban in plasma)	inhibition of clot growth [2]	coagulation status (APTT): risk of blood clotting or bleeding events ([3]; Patient 1 (thrombosis), Factor VIII 80% of standard plasma, 5 mg per day)	coagulation status (APTT): risk of blood clotting or bleeding events ([3]; Patient 4 (coronary artery disease), Factor VIII 240% of standard plasma, 5 mg per day)	coagulation status (APTT): risk of blood clotting or bleeding events ([3]; Patient 2 (thrombosis), Factor VIII 95% of standard plasma, 20 mg per day)	effects in the clot growth rate assay compared with apixaban ([1]; FIG. 2)
COc1ccc(-n2nc(C(N)=O)c3c2C(=O)N(c2ccc(N4CCCCC4=O)cc2)CC3)cc1 [apixaban]	close to maximal inhibition	not be very effective	substantial inhibition	did not inhibit clot growth	no increased risk of blood clotting or bleeding events	increased risk of blood clotting events		
CN1CCc2nc(C(=O)N[C@@H]3C[C@@H](C(=O)N(C)C)CC[C@@H]3NC(=O)C(=O)Nc3ccc(Cl)cn3)sc2C1 [edoxaban]							increased risk of bleeding events	
O=C(NC[C@H]1CN(c2ccc(N3CCOCC3=O)cc2)C(=O)O1)c1ccc(Cl)s1 [rivaroxaban]				did not inhibit clot growth				closely mimic the effects of apixaban
